From patent publication US9326978B2, “A3 adenosine receptor allosteric modulators” (The United States of America, Represented by the Secretary, …, priority 2006, dated 2016)

What was measured:
[1] = molecular target: human A2A AR (Homo sapiens (Human), UniProt P29274); test: Binding assay to the human A2A AR ([3H]CGS21680); settings: [3H]CGS 21680 (15 nM), HEK293 cells, Table 2; for Ki: read-out: Ki(hA2AAR)
Procedure: (§1) CHO (Chinese hamster ovary) cells expressing the recombinant human ARs (HEK-293 cells were used for the human A2AAR) were cultured in DMEM and F12 (1:1) supplemented with 10% fetal bovine serum, 100 units/ml penicillin, […] streptomycin and 2 μmol/ml glutamine. Cells were harvested by trypsinization. After homogenization and suspension, cells were centrifuged at 500 g for 10 min, and the pellet was re-suspended in 50 mM Tris.HCl buffer (pH 7.4) containing 10 mM MgCl2. The suspension was homogenized with an electric homogenizer for 10 sec, and was then re-centrifuged at 20,000 g for 20 min at 4° C. The resultant pellets were resuspended in buffer in the presence of 3 Units/mL adenosine deaminase, and the suspension was stored at −80° C. until the binding experiments. The protein concentration was measured using the Bradford assay.
(§2) For binding to the human A1AR, [^3H]R-PIA (2 nM) was incubated with membranes (40 μg/tube) from CHO cells stably expressing the human A1AR at 25° C. for 60 min in 50 mM Tris.HCl buffer (pH 7.4; MgCl2, 10 mM) in a total assay volume of 200 μL. Nonspecific binding was determined using 10 μM of N^6-cyclopentyladenosine. For human A2A AR binding, membranes (20 μg/tube) from HEK-293 cells stably expressing the human A2A AR were incubated with 15 nM [^3H]CGS21680 at 25° C. for 60 min in 200 μL of 50 mM Tris.HCl, pH 7.4, containing 10 mM MgCl2. N-5′-ethyluronamidoadenosine (10 μM) was used to define nonspecific binding. Reaction was terminated by filtration with GF/B filters.

[2] = molecular target: human A1AR (Homo sapiens (Human), UniProt P30542); test: Binding assay to the human A1AR ([3H]R-PIA); settings: [3H]R-PIA (2.0 nM), CHO cells, Table 2; for inhibition at 10 µM: 1 h, read-out: hA1AR % displ. at 10 μM; for Ki: read-out: Ki(hA1AR)
Procedure: as §1, §2

[3] = molecular target: hA2BAR (Homo sapiens (Human), UniProt P29275); test: Effect on NECA-induced cyclic AMP accumulation at A2B receptor; also: NECA (150 nM)-induced cyclic AMP accumulation; format: cell-based; settings: read-out: hA2BAR % inhib. at 10 μM
[4] = molecular target: T1, human A3ARs (Homo sapiens (Human), UniProt P0DMS8); test: Dissociation kinetics of [125I]I-AB-MECA from human A3ARs; format: binding; settings: 0.5 h, % decrease of dissociation at 30 min, residual binding of [125I]AB-MECA after 30 min = 100%, Table 2, read-out: hA3AR Ag. Dissociation at 10 μM
Procedure: The dissociation of [^125I]I-AB-MECA was measured as follows. Membranes (20 μg) were preincubated at 25° C. with 0.5 nM [^125I]I-AB-MECA, in a total volume of 100 μl of Tris-HCl buffer (50 mM, pH 8.0) containing 10 mM MgCl2, and 1 mM EDTA for 60 min. The dissociation was then initiated by the addition of 3 μM Cl-IB-MECA with or without allosteric modulators. The time course of dissociation of total binding was measured by rapid filtration at appropriate time intervals. Nonspecific binding was measured after 60-min incubation in the presence of 3 μM Cl-IB-MECA. Further assay was as described above.

[5] = molecular target: T1, human A3ARs; test: Cyclic AMP accumulation assay, efficacy at hA3AR; format: cell-based; settings: compared to maximal effect by 2-Cl-IB-MECA alone (control = 100%)
Procedure: Intracellular cyclic AMP levels were measured with a competitive protein binding method (Nordstedt and Fredholm, 1990). CHO cells that expressed recombinant human A3ARs were harvested by trypsinization. After centrifugation and resuspension in medium, cells were plated in 24-well plates in 0.5 ml medium. After 24 hr, the medium was removed and cells were washed three times with 1 ml DMEM, containing 50 mM HEPES, pH 7.4. Cells were then treated with agonists and/or test compounds in the presence of rolipram (10 μM) and adenosine deaminase (3 units/ml). After 45 min forskolin (10 μM) was added to the medium, and incubation was continued an additional 15 min. The reaction was terminated by removing the supernatant, and cells were lysed upon the addition of 200 μL of 0.1 M ice-cold HCl. The cell lysate was resuspended and stored at −20° C. For determination of cyclic AMP production, protein kinase A (PKA) was incubated with [^3H]cyclic AMP (2 nM) in K2HPO4/EDTA buffer (K2HPO4, 150 mM; EDTA, 10 mM), 20 μL of the cell lysate, and 30 μL 0.1 M HCl or 50 μL of cyclic AMP solution (0-16 pmol/200 μL for standard curve). Bound radioactivity was separated by rapid filtration through Whatman GF/C filters and washed once with cold buffer. Bound radioactivity was measured by liquid scintillation spectrometry.

[6] = molecular target: human A3AR (Homo sapiens (Human), UniProt P0DMS8); test: Competitive binding assay to the human A3AR ([125I]I-AB-MECA); settings: for inhibition at 10 µM: 1 h, read-out: hA3AR % displ. at 10 μM; for inhibition at 10 µM / Ki: [125I]I-AB-MECA (0.5 nM), CHO cells, Table 2; for Ki: read-out: Ki(hA3AR); for affinity to orthosteric versus allosteric binding sites (selective affinity): orthosteric sites of A1, A2A, A2B, A3 receptors vs allosteric site of A3 adenosine receptor
Procedure: as §1
Each tube in the competitive binding assay contained 100 μl membrane suspension (20 μg protein), 50 μl [^125I]-AB-MECA (0.5 nM), and 50 μl of increasing concentrations of the test ligands in Tris.HCl buffer (50 mM, pH 8.0) containing 10 mM MgCl2, 1 mM EDTA. Nonspecific binding was determined using 10 μM of 5′-N-ethylcarboxamidoadenosine in the buffer. The mixtures were incubated at 25° C. for 60 min. Binding reactions were terminated by filtration through Whatman GF/B filters under reduced pressure using a MT-24 cell harvester (Brandell, Gaithersburgh, Md., USA). Filters were washed three times with 9 mL ice-cold buffer. Radioactivity was determined in a Beckman 5500B γ-counter.

hA2BAR, sequence (P29275 whole entry): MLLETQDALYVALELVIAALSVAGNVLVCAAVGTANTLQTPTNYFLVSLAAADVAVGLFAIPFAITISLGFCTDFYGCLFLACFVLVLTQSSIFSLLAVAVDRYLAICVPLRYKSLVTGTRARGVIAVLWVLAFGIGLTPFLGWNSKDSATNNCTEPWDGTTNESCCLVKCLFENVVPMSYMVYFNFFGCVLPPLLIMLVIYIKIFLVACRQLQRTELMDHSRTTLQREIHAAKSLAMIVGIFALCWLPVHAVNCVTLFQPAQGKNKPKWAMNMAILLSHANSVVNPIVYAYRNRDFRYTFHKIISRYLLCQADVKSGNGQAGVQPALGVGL
human A2A AR, sequence (P29274 whole entry): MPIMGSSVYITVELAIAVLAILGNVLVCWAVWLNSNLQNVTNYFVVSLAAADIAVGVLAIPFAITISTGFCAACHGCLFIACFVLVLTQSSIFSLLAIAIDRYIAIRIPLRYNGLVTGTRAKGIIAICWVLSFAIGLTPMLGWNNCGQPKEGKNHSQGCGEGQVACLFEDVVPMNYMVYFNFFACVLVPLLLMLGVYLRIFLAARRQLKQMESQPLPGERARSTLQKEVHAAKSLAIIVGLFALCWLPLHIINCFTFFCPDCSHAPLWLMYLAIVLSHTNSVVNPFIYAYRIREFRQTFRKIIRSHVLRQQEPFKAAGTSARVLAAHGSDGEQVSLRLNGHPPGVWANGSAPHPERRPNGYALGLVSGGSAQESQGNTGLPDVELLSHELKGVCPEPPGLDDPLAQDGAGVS
T1 sequence (P0DMS8 whole entry): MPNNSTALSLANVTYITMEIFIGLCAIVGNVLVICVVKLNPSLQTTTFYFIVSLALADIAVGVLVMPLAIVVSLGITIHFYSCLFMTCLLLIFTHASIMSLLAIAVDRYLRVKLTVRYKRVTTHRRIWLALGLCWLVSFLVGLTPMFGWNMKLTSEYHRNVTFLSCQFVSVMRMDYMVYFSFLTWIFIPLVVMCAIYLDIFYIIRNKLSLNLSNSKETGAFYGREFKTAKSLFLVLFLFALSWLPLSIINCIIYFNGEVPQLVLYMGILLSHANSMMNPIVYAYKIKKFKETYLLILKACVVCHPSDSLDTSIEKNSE
human A3AR, sequence (P0DMS8 whole entry): as above
human A1AR, sequence (P30542 whole entry): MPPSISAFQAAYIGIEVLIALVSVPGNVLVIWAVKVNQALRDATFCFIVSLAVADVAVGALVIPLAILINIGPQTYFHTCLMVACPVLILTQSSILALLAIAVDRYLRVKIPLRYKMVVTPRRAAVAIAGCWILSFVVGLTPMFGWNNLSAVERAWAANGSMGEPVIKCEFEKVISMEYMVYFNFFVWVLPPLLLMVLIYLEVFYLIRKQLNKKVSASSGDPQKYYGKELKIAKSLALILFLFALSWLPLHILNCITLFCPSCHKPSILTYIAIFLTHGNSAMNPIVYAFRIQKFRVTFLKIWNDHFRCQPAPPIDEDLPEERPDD

SMILES | hA2AAR % displ. at 10 μM [1] | inhibition at 10 µM [2] [%] | inhibition at 10 µM [3] [%] | activity at 10 µM [4] [%] | melting point [°C] | % Increase of efficacy at hA3AR at 10 μM [5] [%] | inhibition at 10 µM [6] [%] | Ki [1] [µM] | Ki [2] [µM] | Ki [6] [µM] | affinity to orthosteric versus allosteric binding sites (selective affinity) [6]
Clc1ccc(Nc2nc3ccccc3c3[nH]cnc23)cc1Cl [Compound 46, N-(3,4-Dichloro-phenyl)-2-1H-imidazo[4,5-c]quinolin-4-amine] | −0.8% | 1.8 | 10.2 | 91 ± 7 | 167 to 172 | 92 ± 4 | 39 | – | – | – | –
CCCCCc1nc2c(Nc3ccc(Cl)c(Cl)c3)nc3ccccc3c2[nH]1 [Compound 47, N-(3,4-Dichloro-phenyl)-2-pentyl-1H-imidazo[4,5-c]quinolin-4-amine] | −1% | 43.9 | -9.3 | 116 ± 5 | 195 to 200 | 102 ± 5 | 84 | – | – | – | –
Clc1ccc(Nc2nc3ccccc3c3[nH]c(C4CCC4)nc23)cc1Cl [Compound 44, N-(3,4-Dichloro-phenyl)-2-cyclobutyl-1H-imidazo[4,5-c]quinolin-4-amine] | 0.4% | -5 | -5.5 | – | 131 to 134 | 126 ± 3 | 52 | – | – | – | –
Clc1ccc(Nc2nc3ccccc3c3[nH]c(-c4ccco4)nc23)cc1Cl [Compound 43] | 70% | -4 | 9 | 98 ± 3 | 135 to 138 | 95 ± 4 | 78 | – | – | – | –
Clc1ccc(Nc2nc3ccccc3c3[nH]c(C4CCCCCC4)nc23)cc1Cl [Compound 42, N-(3,4-Dichloro-phenyl)-2-cycloheptyl-1H-imidazo[4,5-c]quinolin-4-amine] | −2% | -4 | -7.3 | 130 ± 2 | 236 to 238 | 115 ± 7 | 68 | – | – | – | selective affinity

Now from value to compound, other results behind:

hA2AAR % displ. at 10 μM [1] | inhibition at 10 µM [2] [%] | inhibition at 10 µM [3] [%] | activity at 10 µM [4] [%] | melting point [°C] | % Increase of efficacy at hA3AR at 10 μM [5] [%] | inhibition at 10 µM [6] [%] | Ki [1] [µM] | Ki [2] [µM] | Ki [6] [µM] | SMILES | affinity to orthosteric versus allosteric binding sites (selective affinity) [6]
8% | 21 | -10.7 | 108 ± 4 | 142 to 145 | 111 ± 5 | 69 | – | – | – | c1ccc2c(c1)nc(Nc1ccc3c(c1)CCC3)c1nc(C3CCCC3)[nH]c12 [Compound 36, N-([3,4-c]Indan)-2-cyclopentyl-1H-imidazo[4,5-c]quinolin-4-amine] | –
49% | 51 | -4.1 | 129 ± 15 | 228 to 230 | 118 ± 4 | 56 | – | – | – | OCc1cccc(Nc2nc3ccccc3c3[nH]c(C4CCCC4)nc23)c1 [Compound 35, N-(3-Methanol-phenyl)-2-cyclopentyl-1H-imidazo[4,5-c]quinolin-4-amine] | –
– | – | -6.8 | 174 ± 5 | – | 138 ± 8 | 90 | 3.15 ± 0.21 | 3.42 ± 0.23 | 0.786 ± 0.067 | c1ccc(Nc2nc3ccccc3c3[nH]c(C4CCCC4)nc23)cc1 [Compound 30, N-Phenyl-2-cyclopentyl-1H-imidazo[4,5-c]quinolin-4-amine, reference compound] | non-specific affinity
(16%) | – | 7.3 | 166 ± 11 | 106 to 107 | 132 ± 4 | 92 | > 10 | 4.17 ± 0.73 | 0.41 ± 0.064 | COc1ccc(Nc2nc3ccccc3c3[nH]c(C4CCCC4)nc23)cc1 [Compound 32, N-(4-Methoxy-phenyl)-2-cyclopentyl-1H-imidazo[4,5-c]quinolin-4-amine] | –
74% | 70 | 10.1 | 126 ± 9 | 260 to 261 | 125 ± 2 | 89 | – | – | – | c1ccc2c(c1)nc(Nc1ccc3cc[nH]c3c1)c1nc(C3CCCC3)[nH]c12 [Compound 39, N-(1H-Indol-6-yl)-2-cyclopentyl-1H-imidazo[4,5-c]quinolin-4-amine] | –
68% | 56 | 5 | 109 ± 3 | 235 to 236 | 96 ± 2 | 67 | – | – | – | c1ccc2c(c1)nc(Nc1ccc3cn[nH]c3c1)c1nc(C3CCCC3)[nH]c12 [Compound 37, N-(1H-indazol-6-yl)-2-cyclopentyl-1H-imidazo[4,5-c]quinolin-4-amine] | –
– | – | -4.1 | 153 ± 4 | 125 to 126 | 128 ± 4 | 87 | 5.22 ± 0.32 | – | 1.19 ± 0.107 | Cc1ccc(Nc2nc3ccccc3c3[nH]c(C4CCCC4)nc23)cc1 [Compound 31, N-(4-Methyl-phenyl)-2-cyclopentyl-1H-imidazo[4,5-c]quinolin-4-amine] | –
77% | 28 | -3.4 | 145 ± 10 | – | 147 ± 8 | 86 | – | – | – | c1ccc(CNc2nc3ccccc3c3[nH]c(C4CCCC4)nc23)cc1 [Compound 40, N-(Benzyl)-2-cyclopentyl-1H-imidazo[4,5-c]quinolin-4-amine] | –
